According to patent publication US7943630B2, “3,9-diaza-spiro[5.5]undecane derivatives and their use as monoamine neurotransmitter re-uptake inhibitors” (Neurosearch A/S, priority 2005, dated 2011):

melting point [°C] | Structure (SMILES)
71.2 to 72.9 | Clc1ccc(N2CCC3(CCNCC3)CC2)nc1
198.5 to 199.3 | Brc1cccc(N2CCC3(CCNCC3)CC2)n1.O=C(O)/C=C/C(=O)O
80.4 to 81.9 | Clc1cccc(N2CCC3(CCNCC3)CC2)c1Cl
201.4 to 202.2 | Fc1ccc(N2CCC3(CCNCC3)CC2)cc1Cl.O=C(O)/C=C/C(=O)O
103 to 105 | Brc1ccc(N2CCC3(CCNCC3)CC2)nc1
175.8 to 177.6 | COc1ccc2cc(N3CCC4(CCNCC4)CC3)ccc2c1 [3rd compound of method C, 3-(6-Methoxy-naphthalen-2-yl)-3,9-diaza-spiro[5.5]undecane]
209 to 212 | Clc1ccc(N2CCC3(CCNCC3)CC2)cc1Cl [4th compound of method C, 3-(3,4-Dichloro-phenyl)-3,9-diaza-spiro[5.5]undecane]
95.5 to 97.4 | Clc1ccc(N2CCC3(CCNCC3)CC2)cc1 [7th compound of method C, 3-(4-Chloro-phenyl)-3,9-diaza-spiro[5.5]undecane]
158 to 162 | c1ccc2cc(N3CCC4(CCNCC4)CC3)ccc2c1 [10th compound of method C, 3-Naphthalen-2-yl-3,9-diaza-spiro[5.5]undecane]
